We go through three compounds from PMC4370454, “The 4′-Hydroxyl Group of Resveratrol Is Functionally Important for Direct Activation of PPARα” (PLoS ONE, 2015).

This experiment concerns the target T1, PDE (bovine brain-derived phosphodiesterase, majority PDE4 isozyme).
T1 construct: bovine brain-derived PDE (Sigma), majority PDE4 isozyme
Briefly: PDE-Glo phosphodiesterase assay, […] cAMP substrate. The experiment is classed as biochemical, Bos taurus.

Consider `Oc1ccc(/N=N/c2ccccc2)cc1` [4-PAP, 4-phenylazophenol], for which half-maximal inhibition (IC50) required 26.5 µM.
Consider `Oc1ccc(/C=C/c2ccccc2)cc1` [T4HS, trans-4-hydroxystilbene], for which it took 27.8 µM to reach half-maximal inhibition (IC50).
For the compound `Oc1ccc(/C=C/c2cc(O)cc(O)c2)cc1` [resveratrol], 19 µM corresponded to half-maximal inhibition (IC50).
